The target in assay [1] is T1, ERβ (Homo sapiens, UniProt Q92731). The assay can be described thus: Effect of translational inhibition (CHX) on modulation of ERβ protein levels in MCF7 cells. Type of assay: cell-based. The arrangement: although both cell lines express ERα and ERβ, MCF7 has a high ERα/ERβ ratio; endogenous in cells; host or cells: MCF7.
In assay [2] the target is T1, ERβ. Put plainly: Effect of translational inhibition (CHX) on modulation of ERβ protein levels in T47D cells. Type of assay: cell-based. The arrangement: endogenous in cells. The settings on record: 1 nM CHX, over the concentrations tested.
Assay [3] has as its target T2, ERα (Homo sapiens, UniProt P03372).
T2 sequence (P03372 1-595): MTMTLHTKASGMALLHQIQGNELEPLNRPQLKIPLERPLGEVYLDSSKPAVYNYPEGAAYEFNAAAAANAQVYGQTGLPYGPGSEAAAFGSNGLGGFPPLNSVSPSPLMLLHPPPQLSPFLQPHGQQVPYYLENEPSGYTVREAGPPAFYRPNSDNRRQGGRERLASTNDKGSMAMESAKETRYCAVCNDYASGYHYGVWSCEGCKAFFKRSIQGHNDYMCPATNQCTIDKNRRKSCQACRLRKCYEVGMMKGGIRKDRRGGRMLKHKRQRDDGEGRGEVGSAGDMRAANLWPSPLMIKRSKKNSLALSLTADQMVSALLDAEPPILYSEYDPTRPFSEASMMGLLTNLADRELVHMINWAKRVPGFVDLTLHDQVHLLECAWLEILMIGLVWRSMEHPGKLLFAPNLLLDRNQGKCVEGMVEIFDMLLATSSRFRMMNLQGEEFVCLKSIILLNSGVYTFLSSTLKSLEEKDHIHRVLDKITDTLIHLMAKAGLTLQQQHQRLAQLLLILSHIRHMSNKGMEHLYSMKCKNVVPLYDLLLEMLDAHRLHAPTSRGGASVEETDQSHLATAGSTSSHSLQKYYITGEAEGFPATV
Put plainly: Western blot, dose-response modulation of ERα protein levels in MCF7 cells. Type of assay: cell-based. The arrangement: although both cell lines express ERα and ERβ, MCF7 has a high ERα/ERβ ratio; endogenous in cells; host or cells: MCF7. The settings on record: 24 h; for Efficacy, ERα (AVG % ER remaining ± SD): relative to vehicle (DMSO) = 100%, maximal response of fitted dose-response curve. Background: A western blot detects proteins with antibodies after separation by electrophoresis.

Assay [4] concerns the target T2, ERα. The assay can be described thus: Western blot, dose-response modulation of ERα protein levels in T47D cells. The arrangement: endogenous in cells. Type of assay: cell-based. The settings on record: 24 h; for Efficacy, ERα (AVG % ER remaining ± SD): relative to vehicle (DMSO) = 100%.
Assay [5] deals with T1, ERβ. The arrangement: although both cell lines express ERα and ERβ, MCF7 has a high ERα/ERβ ratio; endogenous in cells; host or cells: MCF7. The settings on record: cited from earlier work.
Assay [6] deals with T1, ERβ. Put plainly: Western blot, dose-response modulation of ERβ protein levels in T47D cells. Type of assay: cell-based. The arrangement: endogenous in cells. The settings on record: 24 h, relative to vehicle (DMSO) = 100%.
Assay [7] has as its target T1, ERβ. The assay can be described thus: Western blot, dose-response modulation of ERβ protein levels in MCF7 cells. The settings on record: 24 h, relative to vehicle (DMSO) = 100%. Type of assay: cell-based. The arrangement: although both cell lines express ERα and ERβ, MCF7 has a high ERα/ERβ ratio; endogenous in cells; host or cells: MCF7.
Assay [8] deals with ERα. The settings on record: MCF7, cited from earlier work; for ERα protein levels downregulated: 48 h, 1 nM E2, 100 nM fulvestrant, 1 μM 4-OHT, ref Garner et al. (2015); for ERα protein levels downregulated to: after 6 h, 100 nM, ref Yeh et al. (2013).
In assay [9] the test system is ERα. The settings on record: T47D, cited from earlier work; for Effect on ERα protein levels: 24 h, 1 nM E2, 1 μM 4-OHT, ref Power and Thompson (2003).
Assay [10] addresses T1, ERβ. The arrangement: endogenous in cells; method as in Power and Thompson (2003). The settings on record: T47D; 1 nM E2, 24 h 1 μM 4-OHT; ref Power and Thompson (2003); cited from earlier work.
Assay [11] addresses T2, ERα. The assay can be described thus: Effect of translational inhibition (CHX) on modulation of ERα protein levels in T47D cells. Type of assay: cell-based. The settings on record: 1 nM CHX, over the concentrations tested. The arrangement: endogenous in cells.
Assay [12] has as its target T2, ERα. The assay can be described thus: Effect of translational inhibition (CHX) on modulation of ERα protein levels in MCF7 cells. Type of assay: cell-based. The arrangement: although both cell lines express ERα and ERβ, MCF7 has a high ERα/ERβ ratio; endogenous in cells; host or cells: MCF7. The settings on record: 1 nM CHX, over the concentrations tested.
The mark [13] stands for this setting: MCF7, 1 nM CHX, over the concentrations tested.
[14] abbreviates: MCF7, 1 nM E2, 1 μM fulvestrant, ref Mishra et al. (2016).
[15] abbreviates: MCF7 cells transfected with an ERβ expression vector, 10 nM, ref Peekhaus et al. (2004).
Where [16] appears, read: MCF7, 1 nM E2, 24 h 1 μM 4-OHT, ref Power and Thompson (2003).

The structures appear in SMILES notation. Where two headings read alike, the source gives them in different places. Marks after values point to notes of the source that are not given here.

T1 sequence (Q92731 whole entry): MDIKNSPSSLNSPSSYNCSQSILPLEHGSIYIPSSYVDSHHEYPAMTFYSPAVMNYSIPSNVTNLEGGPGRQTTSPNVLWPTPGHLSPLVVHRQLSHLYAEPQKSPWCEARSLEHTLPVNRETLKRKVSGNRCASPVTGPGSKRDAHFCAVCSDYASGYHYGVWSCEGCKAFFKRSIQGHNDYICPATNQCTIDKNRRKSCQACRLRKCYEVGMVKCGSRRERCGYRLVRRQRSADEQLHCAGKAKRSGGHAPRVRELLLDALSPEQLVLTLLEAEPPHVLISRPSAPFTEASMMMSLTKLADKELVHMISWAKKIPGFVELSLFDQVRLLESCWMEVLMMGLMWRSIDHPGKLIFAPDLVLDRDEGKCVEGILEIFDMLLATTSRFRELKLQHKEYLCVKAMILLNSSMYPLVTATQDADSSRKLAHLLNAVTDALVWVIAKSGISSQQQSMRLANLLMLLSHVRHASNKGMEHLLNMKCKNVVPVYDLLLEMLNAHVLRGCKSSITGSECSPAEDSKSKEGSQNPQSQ

Consider `C[C@]12CC[C@@H]3c4ccc(O)cc4C[C@@H](CCCCCCCCC[S+]([O-])CCCC(F)(F)C(F)(F)F)[C@H]3[C@@H]1CC[C@@H]2O` (stereo partly shown) [Ful, fulvestrant], for which the “Change in ERβ protein levels on addition of CHX” value (“Change in ERβ protein levels” for short) on ERβ [1] (setting [13]) is reported as “not significantly altered”; on ERβ [2] it was 1.2 fold. The figures for the “Efficacy, ERα (AVG % ER remaining ± SD)” value on ERα [3] and on ERα [4] were 46.8 ± 6.8^a % and 64.1 ± 20.9^a %, respectively. Further, the “Effect on ERβ protein levels” value on ERβ [5] (setting [14]) and on ERβ [5] (setting [15]) was “upregulated” in each case. Also, the figures for the “Efficacy, ERβ (AVG % ER remaining ± SD)” value at ERβ [6] and on ERβ [7] were 134.1 ± 4.8^b*** % and 127.1 ± 9.6^b*** %, respectively. The “Efficacy of downregulation of ERα protein levels” value with ERα [8] (1 μM, 4 h, ref Joseph et al. (2016)) is listed as 6.4%. Besides, the “ERα protein levels downregulated” value in the assay with ERα [8] is 100%. Moreover, the “ERα protein levels downregulated to” value in the assay with ERα [8] is on record as 35%. Besides, the IC50 in the assay on ERα [8] (ref Joseph et al. (2016), read-out: Potency of downregulation of ERα protein levels) was 0.39 nM. Moreover, the “ERα protein levels downgraded” value in the assay with ERα [9] (concentration range 0.03–1 μM, ref Liu et al. (2016)) is “more than 50%”.

In the case of `C[C@]12CC[C@@H]3c4ccc(O)cc4CC[C@H]3[C@@H]1CC[C@@H]2O` [E2, 17β-estradiol], the “Effect on ERβ protein levels” value on ERβ [10] is on record as “significantly upregulated”; at ERβ [5] (setting [14]), “downregulated”; on ERβ [5] (setting [16]), “significantly upregulated”; at ERβ [5] (setting [15]), “downregulated”. For the same molecule, the “Efficacy, ERβ (AVG % ER remaining ± SD)” value at ERβ [6] is 58.7 ± 9.0^a %; at ERβ [7], 53.3 ± 5.6^a %. Further, the “Effect on ERα protein levels” value in the assay on ERα [8] (24 h, 1 nM E2, 1 μM 4-OHT, ref Power and Thompson (2003)) is on record as “downregulated”; with ERα [9] it was “no effect”. In the assay with ERα [8], the “ERα protein levels downregulated” value is given as 100%. Besides, the “ERα protein levels downregulated to” value with ERα [8] is 35%.

On to `CC/C(=C(\c1ccc(O)cc1)c1ccc(OCCN(C)C)cc1)c1ccccc1` [4-OHT, (2)-4-hydroxytamoxifen], for which the “Change in ERβ protein levels” value on ERβ [1] is reported as “not significantly altered”. The “Effect on ERβ protein levels” value is recorded as “significant downregulation” at ERβ [10] and “significantly upregulated” on ERβ [5] (setting [16]). For the same molecule, the “Efficacy, ERβ (AVG % ER remaining ± SD)” value at ERβ [6] was 151.8 ± 10.8^b*** %; at ERβ [7] it was 142.9 ± 8.2^b*** %. Further, the “Effect on ERα protein levels” value in the assay with ERα [9] is reported as “upregulate”.

Turning to `Cc1c(-c2ccc(O)cc2)nn(-c2ccc(O)cc2)c1-c1ccc(OCCN2CCCCC2)cc1` [MPP, methylpiperidinopyrazole], the “Change in ERβ protein levels” value at ERβ [1] (setting [13]) was 1.1 fold; at ERβ [2], “no significant difference”. The “Efficacy, ERα (AVG % ER remaining ± SD)” value on ERα [3] was 120.9 ± 3.0^b*** %; at ERα [4], 115.7 ± 3.4^b** %. Also, the figures for the “Change in ERα protein levels on addition of CHX” value at ERα [11] and at ERα [12] were “no significant difference” and 1.1 fold, respectively. Also, the figures for the “Efficacy, ERβ (AVG % ER remaining ± SD)” value at ERβ [6] and on ERβ [7] were 108.0 ± 2.1^b*** % and 122.0 ± 2.3^b*** %, respectively.

`O=C1C[C@@H](c2ccc(O)cc2)Oc2cc(O)ccc21` [Liq, liquiritigenin]: the “Potency, ERα (AVG IC50 in Log μg/mL ± SD)” value on ERα [3] is −1.9 ± 0.8^b**** Log μg/mL; at ERα [4] it was −9.8 ± 1.0^a ^, ^c** Log μg/mL. Besides, the “Efficacy, ERα (AVG % ER remaining ± SD)” value at ERα [3] was 65.9 ± 10.9^a %; at ERα [4], 87.5 ± 2.5^b ^, ^c %. Further, the “Change in ERα protein levels on addition of CHX” value at ERα [11] and on ERα [12] was “no significant difference” throughout.

(Values after publication PMC10040842, “Cyclopia extracts act as selective estrogen receptor subtype downregulators in estrogen receptor positive breast cancer cell lines: Comparison to standard of care breast cancer endocrine therapies and a selective estrogen receptor agonist and antagonist” (Frontiers in Pharmacology, 2023).)
